Measured values reported in patent EP2145538A1 (priority 2008, dated 2010).
≈ marks a conversion by molar mass, not a printed value. Where “and” joins values, the source holds several entries; their conditions need not be identical. Identical values can stand only once. Entries after “also recorded” stand apart in the source; their conditions may differ. Like-named read-outs stand apart in the source and are kept apart here.

Assays:
[1] = system: Blumeria graminis f. sp. tritici; assay: Powdery mildew rating on sprayed wheat plants (MOLL et al. 1996); format: in vivo; details: 7 dpi; spray treatment at 3-leaf stage; AI-1 and AI-2 1 mg/ml, CI 100 µg/ml; Kontrolle 60
Description: Nach einer Sprühbehandlung der Weizenpflanzen im 3-Blatt-Stadium und anschließender Inokulation (nach Abtrocknen) mit Mehltau Blumeria graminis f. sp. tritici sind eindeutige Hemmeffekte zu erkennen (Figur 25-27). Eine Bonitur nach MOLL et al. (1996) ergab für den Amylase-Inhibitor AI-1 eine Befallsreduktion von 60% auf 7%, für den Amylase-Inhibitor AI-2 auf 1 % und für den Cellulase-Inhibitor CI auf 10% (Tabelle 3). Tab. 3: Bonitur des Mehltaubefalls (Blumeria graminis f. sp. tritici) nach MOLL et al. (1996) 7 dpi.

[2] = system: Amylase aus Bacillus sp.; assay: Amylase activity assay in microtiter plates (dye-labelled starch substrate), commercial enzyme; format: biochemical; details: for Hemmung der Enzymaktivität: result in words
Description: (§1) Diese Methode basiert auf folgendem Prinzip:

[3] = molecular target: T1, Humanspeichelamylase (Homo sapiens, UniProt P0DUB6); assay: as above; format: biochemical
T1 construct: purchased Sigma
T1 sequence (P0DUB6 16-511): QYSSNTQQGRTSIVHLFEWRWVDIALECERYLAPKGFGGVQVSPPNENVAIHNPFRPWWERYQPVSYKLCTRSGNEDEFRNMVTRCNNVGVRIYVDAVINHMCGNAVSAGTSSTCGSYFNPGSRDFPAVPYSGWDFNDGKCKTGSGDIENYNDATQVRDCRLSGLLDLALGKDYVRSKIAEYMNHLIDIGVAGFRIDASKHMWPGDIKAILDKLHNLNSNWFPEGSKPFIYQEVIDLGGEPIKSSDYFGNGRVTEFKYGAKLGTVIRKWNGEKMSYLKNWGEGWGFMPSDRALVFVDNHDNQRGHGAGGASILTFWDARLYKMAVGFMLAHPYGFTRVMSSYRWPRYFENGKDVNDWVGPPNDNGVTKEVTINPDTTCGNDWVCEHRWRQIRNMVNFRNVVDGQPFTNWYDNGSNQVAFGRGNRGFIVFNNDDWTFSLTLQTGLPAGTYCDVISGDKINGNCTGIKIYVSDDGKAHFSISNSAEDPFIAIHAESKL
Description: as §1

[4] = molecular target: Amylase aus Aspergillus oryzae (Aspergillus oryzae, UniProt P0C1B3); assay: Amylase activity assay in microtiter plates (dye-labelled starch substrate), commercial enzymes; format: biochemical; details: both Aspergillus amylases (35 U/mg Fluka, 200 U/mg Sigma); result in words
Description: as §1

[5] = system: Fusarium graminearum; format: in vivo
[6] = system: Fusarium graminearum; assay: microbe, parasite or virus in culture; format: cell-based; details: for Einfluss auf das Wachstum von Fusarium graminearum: Saccharose as sole C source, up to 14 days
[7] = system: Amylasen aus Kulturfiltrat (Strohextrakt) von in vitro angezogenem Fusarium graminearum; format: biochemical; details: for Hemmung der Enzymaktivität: result in words
[8] = system: Amylasen von mit F. graminearum infizierten Pflanzen; format: biochemical, Fusarium graminearum; details: for Hemmung der Enzymaktivität: result in words
[9] = system: Fusarium graminearum; format: in vivo; details: for Fusarium Protein Equivalent (µg/g), Mittelwert: above-ground parts; for Fusarium Protein Equivalent (µg/g), Mittelwert / Fusarium Protein Equivalent (µg /g), Mean: 2 weeks after sowing; for Aussehen der behandelten, infizierten Pflanzen (Fotos): folded filter, very high infection pressure; for Reduktion des Befalls der Wurzeln (ELISA): roots of infected wheat seedlings on folded filter; for Fusarium Protein Equivalent (µg /g), Mean: roots
[10] = system: Weizenpflanzen; details: in vivo
[11] = molecular target: T2, Cellobiohydrolase I (CBH I) (Trichoderma reesei, UniProt P62694); details: result in words; cited from earlier work
T2 sequence (P62694 18-513): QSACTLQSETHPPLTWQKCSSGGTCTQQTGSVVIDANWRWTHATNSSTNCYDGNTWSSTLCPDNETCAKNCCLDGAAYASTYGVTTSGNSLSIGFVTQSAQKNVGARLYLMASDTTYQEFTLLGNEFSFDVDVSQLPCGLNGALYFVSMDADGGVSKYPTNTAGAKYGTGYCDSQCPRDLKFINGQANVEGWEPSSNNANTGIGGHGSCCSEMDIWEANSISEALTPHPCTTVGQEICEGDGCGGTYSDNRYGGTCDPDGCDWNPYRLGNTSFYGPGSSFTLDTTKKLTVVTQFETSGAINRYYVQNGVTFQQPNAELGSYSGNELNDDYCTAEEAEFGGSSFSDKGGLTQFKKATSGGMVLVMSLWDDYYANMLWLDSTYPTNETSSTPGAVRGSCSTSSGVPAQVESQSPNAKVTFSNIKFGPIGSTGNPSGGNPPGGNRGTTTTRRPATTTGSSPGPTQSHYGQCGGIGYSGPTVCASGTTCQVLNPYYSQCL

[12] = molecular target: T3, Endoglukanase II (EG II) (Trichoderma reesei, UniProt P07982); details: result in words; cited from earlier work
T3 sequence (P07982 22-418): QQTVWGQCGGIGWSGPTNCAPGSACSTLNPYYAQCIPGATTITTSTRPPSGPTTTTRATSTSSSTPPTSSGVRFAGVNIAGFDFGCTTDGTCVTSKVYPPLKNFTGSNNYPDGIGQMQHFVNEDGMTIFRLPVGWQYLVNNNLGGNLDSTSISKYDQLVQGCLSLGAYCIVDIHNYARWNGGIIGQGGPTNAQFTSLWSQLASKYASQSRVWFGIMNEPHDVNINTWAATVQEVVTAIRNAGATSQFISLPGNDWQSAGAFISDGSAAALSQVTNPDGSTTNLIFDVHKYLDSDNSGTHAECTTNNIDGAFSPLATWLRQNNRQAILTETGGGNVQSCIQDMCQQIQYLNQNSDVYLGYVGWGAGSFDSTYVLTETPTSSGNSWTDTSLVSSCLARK

[13] = infected with F.g. + inhibitor, infected control 341,44
[14] = infected with F.g. + inhibitor, infected control 1261,2
[15] = Stärke as sole C source, 14 days

For `CC1OC(OC2C(CO)OC(OC3C(CO)OC(O)C(O)C3O)C(O)C2O)C(O)C(O)C1NC1C=C(CO)C(O)C(O)C1O` (stereo not drawn) [AI-1, Acarbose], the “Befall (%)” value [1] was 7%, the “Hemmung der Enzymaktivität” value ([2]; 0,5 mg/ml) was “ebenfalls gehemmt, jedoch durch diese Konzentration nicht total ausschaltet” and the IC100 ([3]; Humanamylase (500 U/mg, Sigma), read-out: Konzentration, bei der die Amylase vollständig / total gehemmt wird) was 250 µg/mL. The “Hemmung der Enzymaktivität” value [4] was “nicht oder nur sehr schwach beeinflusst”, the “Reduktion der Pilzmenge (ELISA)” value ([5]; Versuch 1, 4 weeks, seed dip treatment) was 66% and the “Hemmung des Pilzwachstums (ELISA)” value ([5]; Versuch 1, 4 weeks, seed dip treatment, result in words) was “vollständige Hemmung”. For the same compound, the “Hemmung des Pilzwachstums / Reduktion der Pilzmenge (ELISA)” value ([5]; Versuch 2, 4 weeks, seed dip treatment) was 60% and 85%, the “Blattfrischgewicht infizierter Pflanzen” value ([5]; soil substrate, greenhouse, 4 weeks, AI-1 1 mg /ml seed treatment, result in words) was “hebt diese Frischgewichtsdepression auf; also recorded: gleiche Frischgewicht wie die nicht infizierte Kontrolle” and the MIC ([6]; Fusarium graminearum, 336 h, read-out: Konzentration, bei der das Wachstum total gehemmt wird) was 30 µg/mL (≈ 46.5 µM). The inhibition of growth at 15 µg/mL ([6]; Fusarium graminearum, read-out: Hemmung des Wachstums) was ~50%, the “Einfluss auf das Wachstum von Fusarium graminearum” value ([6]; result in words) was “keinen negativen Einfluss; also recorded: sogar gefördert” and the “Faktor effektiver als der Cellulase-Inhibitor gegenüber Stärke als Substrat” value ([6]; total inhibition, 30 µg/ml versus 100 µg/ml) was 3. For the same compound, the “Konzentration, bei der die Amylasen total gehemmt wurden” value [7] was 0,06 mg/ml, the “Amylase-Aktivität reduziert bis auf” value ([7]; 5 µg/ml, remaining activity) was 28% and the “Amylasen gehemmt bis auf” value ([8]; 0,5 mg/ml, not totally switched off) was 69,2%. The “Hemmung der Enzymaktivität” value [8] was “starke, wenn auch nicht vollständige Hemmung”, the “Fusarium Protein Equivalent (µg/g), Mittelwert” value [9, 13] was 25,2 µg/g and the “Fusarium Protein Equivalent (µg/g), Mittelwert” value ([9]; not infected (K) + inhibitor) was 2,2 µg/g. The “Aussehen der behandelten, infizierten Pflanzen (Fotos)” value ([9]; result in words) was “fast normal aussehen”, the “Effekt auf der Basis des Frischgewichtes” value ([9]; infected wheat seedlings on folded filter, 2 weeks, result in words) was “starke befallreduzierende Effekt; also recorded: positive Effekt” and the “Reduktion des Befalls der Wurzeln (ELISA)” value ([9]; 2 weeks) was 66% and 61%. The “Fusarium Protein Equivalent (µg /g), Mean” value [9, 14] was 554,8 µg /g, the “Fusarium Protein Equivalent (µg /g), Mean” value ([9]; not infected (K) + inhibitor) was 6,3 µg /g and the “Hemmung von Keimung und Pflanzenwachstum” value [10] was “weder der Amylase-Inhibitor AI-1 noch der amylasehemmende Wirkung zeigende Cellulose-Inhibitor die Keimung und das Pflanzenwachstum hemmten”.
For Na2PdCl6 · 4 H2O [CI], the Inhibition [11] is given as “in starkem Maße zu inhibieren”, the “Befall (%)” value [1] is given as 10% and the “Konzentration, bei der die Amylase total gehemmt wird” value ([2]; Bacillus-Amylase) is given as 100 µg/mL. The “Hemmung der Enzymaktivität” value [2] was “bei höherer Konzentration hemmte”, the “Konzentration, bei der die Amylase vollständig / total gehemmt wird” value ([3]; Humanamylase (500 U/mg, Sigma)) was 25 µg/mL and the “Hemmung der Enzymaktivität” value ([3]; result in words) was “bei höherer Konzentration hemmte”. For the same compound, the “Hemmung der Enzymaktivität” value [4] was “unbeeinflusst blieben”, the “Hemmung des Pilzwachstums” value ([5]; soil substrate, greenhouse, 4 weeks, both trials, CI 100µg /ml seed treatment, result in words) was “nicht hemmt; also recorded: keinerlei Effekt” and the “Hemmung des Pilzwachstums” value ([6]; Cellulose as C source, 12,5 µg/ml, 14 days, result in words) was “deutliche Wachstumsdepression”. The Wachstumsdepression ([6]; Cellulose as C source, ab 50 bis 100 µg/mL, 14 days) was 100%, the “Konzentration, bei der das Wachstum total gehemmt ist” value ([6]; Cellulose as sole C source) was 50 µg/mL and the Wachstumsrate reduziert um ([6]; Cellulose as sole C source, 12,5 µg/ml) was “ca. 50%”. The “Einfluss auf das Wachstum von Fusarium graminearum” value ([6]; result in words) was “nicht gehemmt”, the “Einfluss auf das Wachstum” value ([6]; Stärke as sole C source, 6,5-12,5 µg/ml, result in words) was “verifizierbare Wachstumsförderung” and the “Konzentration, ab der das Wachstum partiell gehemmt wird” value [6, 15] was ≥ 75 µg/mL. The “Konzentration, bei der das Wachstum total gehemmt wird” value [6, 15] was ≥ 100 µg/mL, the “Konzentration, bei der das Wachstum total gehemmt wird” value ([6]; Stärke as sole C source, 14 days, listed as Cellulase-Inhibitor) was 100 µg/mL and the “Hemmung der Enzymaktivität” value [7] was “nicht bzw. nur unwesentlich hemmt”. For the same compound, the “Hemmung der Enzymaktivität” value ([7]; listed as Cellulase-Inhibitor) was “bei höheren Konzentrationen auch die Amylasen des Fusarium-Kulturfiltrates hemmt; also recorded: unbeeinflusst blieben”, the “Hemmung der Enzymaktivität” value [8] was “nicht bzw. nur unwesentlich hemmt” and the “Hemmung der Enzymaktivität” value ([8]; listed as Cellulase-Inhibitor) was “unbeeinflusst blieben”. For the same compound, the “Fusarium Protein Equivalent (µg/g), Mittelwert” value [9, 13] was 66,34 µg/g, the “Fusarium Protein Equivalent (µg/g), Mittelwert” value ([9]; not infected (K) + inhibitor) was 0,04 µg/g and the “Aussehen der behandelten, infizierten Pflanzen (Fotos)” value ([9]; result in words) was “grüner aus, sind aber im Wuchs doch deutlich reduziert”. For the same compound, the “Reduktion des Befalls der Wurzeln (ELISA)” value ([9]; 2 weeks) was 51%, the “Fusarium Protein Equivalent (µg /g), Mean” value [9, 14] was 618,9 µg /g and the “Fusarium Protein Equivalent (µg /g), Mean” value ([9]; not infected (K) + inhibitor) was 49,0 µg /g. The Inhibition [12] was “in starkem Maße zu inhibieren”, the “Hemmung von Keimung und Pflanzenwachstum” value [10] was “weder der Amylase-Inhibitor AI-1 noch der amylasehemmende Wirkung zeigende Cellulose-Inhibitor die Keimung und das Pflanzenwachstum hemmten” and the “negativer Effekt auf das Pflanzenwachstum” value [10] was “keinerlei negativen Effekt auf das Pflanzenwachstum”.
